From patent US10968199B2, “Cycloalkyl-containing apoptosis signal-regulating kinase 1 inhibitors and methods of use thereof” (ENANTA PHARMACEUTICALS, INC., priority 2018, dated 2021)

target: ASK1 kinase (Homo sapiens (Human), UniProt Q99683); experiment: HTRF KinEASE assay of ASK1 kinase inhibition; assay type: biochemical; conditions: HTRF KinEASE-STK TR-FRET; 5 nM ASK1, 1 uM STK3 peptide substrate, 100 uM ATP, 3 hours
Method: The ability (IC50) of compounds to inhibit ASK1 kinase activity was determined by HTRF® KinEASE™ Assay System.
ASK1 was purchased from Thermofisher (Catalogue #PV4011), ATP was purchased from Sigma (Catalogue #A7699), HTRF® KinEASE™ Assay System was obtained from Cisbio (Bedford, Mass.). ½ Area plate was purchased from Perkin Elmer (Catalogue # #6005560). HTRF® KinEASE™-STK is a generic method for measuring serine/threonine kinase activities using a time-resolved fluorescence resonance energy transfer (TR-FRET) immunoassay. The IC50 value for each compound was determined in the presence of compound (various concentration from 0 to 10 μM) and a fixed amount of ATP and peptide substrates. The test compound, 1 uM STK3 peptide substrate, and 5 nM of ASK1 kinase are incubated with kinase reaction buffer containing 50 mM HEPES pH 7.5, 0.01% BRIJ-35, 10 mM MgCl2, and 1 mM EGTA for 30 minutes. 100 uM ATP is added to start kinase reaction and incubated for 3 hours. The STK3-antibody labeled with Eu^3+-Cryptate and 125 nM streptavidin-XL665 are mixed in a single addition with stop reagents provided by the Cisbio kit used to stop the kinase reaction. Fluorescence is detected using an Envision Multilabeled 2014 reader from PerkinElmer. The Fluorescence is measured at 615 nm (Cryptate) and 665 nm (XL665) and a ratio of 665 nm/615 nm is calculated for each well. The resulting TR-FRET is proportional to the phosphorylation level. Staurosporine was used as the positive control. IC50 was determined by XLfit 5.3.
By using above method, the inhibition of ASK1 was tested for the compound of formula (I). IC50 ranges are as follows: A<1 nM; 1 nM<B<10 nM; C>10 nM.

Sequence of ASK1 kinase (Q99683 whole entry): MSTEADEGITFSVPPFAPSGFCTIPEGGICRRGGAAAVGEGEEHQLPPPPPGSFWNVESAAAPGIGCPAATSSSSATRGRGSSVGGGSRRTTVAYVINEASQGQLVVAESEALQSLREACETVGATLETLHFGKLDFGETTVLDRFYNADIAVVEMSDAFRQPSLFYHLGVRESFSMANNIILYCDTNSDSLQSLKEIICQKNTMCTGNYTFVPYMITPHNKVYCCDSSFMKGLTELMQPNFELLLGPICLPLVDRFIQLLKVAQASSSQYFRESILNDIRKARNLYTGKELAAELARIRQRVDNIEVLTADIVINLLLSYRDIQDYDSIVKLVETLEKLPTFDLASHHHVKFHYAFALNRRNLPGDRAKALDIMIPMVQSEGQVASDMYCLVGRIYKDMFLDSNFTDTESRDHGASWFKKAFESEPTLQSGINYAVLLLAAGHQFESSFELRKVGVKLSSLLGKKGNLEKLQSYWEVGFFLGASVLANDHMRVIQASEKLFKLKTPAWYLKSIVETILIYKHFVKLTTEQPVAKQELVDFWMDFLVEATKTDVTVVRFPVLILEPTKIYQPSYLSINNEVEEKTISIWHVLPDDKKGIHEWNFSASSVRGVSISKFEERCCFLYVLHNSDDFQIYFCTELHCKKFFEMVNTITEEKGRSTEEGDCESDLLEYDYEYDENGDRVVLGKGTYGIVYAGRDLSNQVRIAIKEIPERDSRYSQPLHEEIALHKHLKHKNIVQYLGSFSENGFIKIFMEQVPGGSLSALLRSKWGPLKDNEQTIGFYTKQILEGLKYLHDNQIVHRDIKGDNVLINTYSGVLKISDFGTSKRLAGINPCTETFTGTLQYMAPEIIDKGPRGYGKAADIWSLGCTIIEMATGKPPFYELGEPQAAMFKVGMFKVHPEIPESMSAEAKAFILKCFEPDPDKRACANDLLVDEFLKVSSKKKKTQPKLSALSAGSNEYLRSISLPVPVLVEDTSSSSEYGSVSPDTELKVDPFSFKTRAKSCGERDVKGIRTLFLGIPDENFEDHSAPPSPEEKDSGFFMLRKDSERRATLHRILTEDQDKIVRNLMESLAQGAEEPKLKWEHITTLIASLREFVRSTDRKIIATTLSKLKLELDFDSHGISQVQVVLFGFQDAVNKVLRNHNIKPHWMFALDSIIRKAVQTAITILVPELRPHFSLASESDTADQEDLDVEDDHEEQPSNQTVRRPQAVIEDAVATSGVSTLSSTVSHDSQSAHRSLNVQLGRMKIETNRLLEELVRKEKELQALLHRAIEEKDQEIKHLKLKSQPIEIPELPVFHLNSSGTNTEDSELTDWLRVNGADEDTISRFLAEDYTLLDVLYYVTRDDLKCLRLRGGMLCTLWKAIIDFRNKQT

**Q.** How did the IC50 turn out when CCOC(=O)C1CC1c1cc(C(=O)Nc2cccc(-c3nncn3C(C)C)n2)ncc1C (centres unmarked) [Example 15] was run?
**A.** The IC50 was 1 to 10 nM.

**Q.** For Cc1cc(F)c(C(=O)Nc2cccc(-c3nncn3C(C)C)n2)cc1C1CC1NC(=O)c1ccc(F)cc1 (centres unmarked) [Example 6, 2-fluoro-5-(2-(4-fluorobenzamido)cyclopropyl)-N-(6-(4-isopropyl-4H-1,2,4-triazol-3-yl)pyridin-2-yl)-4-methylbenzamide], which IC50 is on record?
**A.** Its IC50 is over 10 nM.

**Q.** With COc1cc(C)c(C2CC2NS(=O)(=O)CCC(F)(F)F)cc1C(=O)Nc1cccc(-c2nncn2C(C)C)n1 (centres unmarked) [Example 21] as the molecule, how does the IC50 read?
**A.** The IC50 was 1 to 10 nM.

**Q.** With Cc1cc(F)c(C(=O)Nc2cccc(-c3nncn3C(C)C)n2)cc1C1CC1C(=O)O (centres unmarked) [Example 2, 2-(4-fluoro-5-((6-(4-isopropyl-4H-1,2,4-triazol-3-yl)pyridin-2-yl)carbamoyl)-2-methylphenyl)cyclopropane-1-carboxylic acid] as the molecule, how does the IC50 read?
**A.** The IC50 was over 10 nM.

**Q.** For Cc1cc(F)c(C(=O)Nc2cccc(-c3nncn3C(C)C)n2)cc1C1CC1C(=O)NC1CC1 (centres unmarked) [Example 3, 5-(2-(cyclopropylcarbamoyl)cyclopropyl)-2-fluoro-N-(6-(4-isopropyl-4H-1,2,4-triazol-3-yl)pyridin-2-yl)-4-methylbenzamide], which IC50 is on record?
**A.** Its IC50 is over 10 nM.

**Q.** With Cc1cc(F)c(C(=O)Nc2cccc(-c3nncn3C(C)C)n2)cc1C1CC1NC(=O)OCC(F)(F)F (centres unmarked) [Example 10] as the molecule, how does the IC50 read?
**A.** The IC50 was 1 to 10 nM.

**Q.** For Cc1cc(F)c(C(=O)Nc2cccc(-c3nncn3[C@H](C)CO)n2)cc1C1CC1NC(=O)C(C)(C)C (some centres unmarked) [Example 29], which IC50 is on record?
**A.** The IC50 was 1 to 10 nM.

**Q.** COc1cc(C)c(C2CC2NS(=O)(=O)N(C)C)cc1C(=O)Nc1cccc(-c2nncn2C(C)C)n1 (centres unmarked) [Example 20] was tested. Which IC50 did it give?
**A.** The IC50 was 1 to 10 nM.

**Q.** With Cc1cc(F)c(C(=O)Nc2cccc(-c3nncn3C(C)C)n2)cc1C1CC1NC(=O)N1CCC(F)(F)C1 (centres unmarked) [Example 5, 3,3-difluoro-N-(2-(4-fluoro-5-((6-(4-isopropyl-4H-1,2,4-triazol-3-yl)pyridin-2-yl)carbamoyl)-2-methylphenyl)cyclopropyl)pyrrolidine-1-carboxamide] as the molecule, how does the IC50 read?
**A.** The IC50 was over 10 nM.

**Q.** With Cc1cnc(C(=O)Nc2cccc(-c3nncn3C(C)C)n2)cc1C1CC1NC(=O)OCC(F)(F)F (centres unmarked) [Example 19] as the molecule, how does the IC50 read?
**A.** Its IC50 is over 10 nM.

**Q.** For Cc1cnc(C(=O)Nc2cccc(-c3nncn3C(C)C)n2)cc1C1CC1NC(=O)OC(C)(C)C (centres unmarked) [Example 8, tert-butyl (2-(2-((6-(4-isopropyl-4H-1,2,4-triazol-3-yl)pyridin-2-yl)carbamoyl)-5-methylpyridin-4-yl)cyclopropyl)carbamate], which IC50 is on record?
**A.** The IC50 was over 10 nM.

**Q.** How did the IC50 turn out when CCOC(=O)C1CC1c1cc(C(=O)Nc2cccc(-c3nncn3C(C)C)n2)c(F)cc1C (centres unmarked) [Example 1, ethyl 2-(4-fluoro-5-((6-(4-isopropyl-4H-1,2,4-triazol-3-yl)pyridin-2-yl)carbamoyl)-2-methylphenyl)cyclopropane-1-carboxylate] was run?
**A.** Its IC50 is 1 to 10 nM.

**Q.** How did the IC50 turn out when Cc1cc(F)c(C(=O)Nc2cccc(-c3nncn3[C@H](C)CO)n2)cc1C1CC1NS(=O)(=O)N(C)C (some centres unmarked) [Example 28] was run?
**A.** Its IC50 is 1 to 10 nM.

**Q.** Which IC50 does the source give for COc1cc(C)c(C2CC2NC(=O)N(C)CCC(F)(F)F)cc1C(=O)Nc1cccc(-c2nncn2C(C)C)n1 (centres unmarked) [Example 18] here?
**A.** The IC50 was 1 to 10 nM.

**Q.** Cc1cc(F)c(C(=O)Nc2cccc(-c3nncn3C(C)C)n2)cc1C1CC1NS(=O)(=O)N(C)C (centres unmarked) [Example 7, 5-(2-((N,N-dimethylsulfamoyl)amino)cyclopropyl)-2-fluoro-N-(6-(4-isopropyl-4H-1,2,4-triazol-3-yl)pyridin-2-yl)-4-methylbenzamide] was tested. Which IC50 did it give?
**A.** Its IC50 is over 10 nM.

**Q.** For Cc1cnc(C(=O)Nc2cccc(-c3nnnn3[C@H](C)CO)n2)cc1C1CC(NC(=O)OC(C)(C)C)C1 (stereo partly drawn) [Example 9, tert-butyl (R)-(3-(2-((6-(1-(1-hydroxypropan-2-yl)-1H-tetrazol-5-yl)pyridin-2-yl)carbamoyl)-5-methylpyridin-4-yl)cyclobutyl)carbamate], which IC50 is on record?
**A.** Its IC50 is over 10 nM.

**Q.** Which IC50 does the source give for COc1cc(C)c(C2CC2NC(=O)c2ccc(F)cc2)cc1C(=O)Nc1cccc(-c2nncn2C(C)C)n1 (centres unmarked) [Example 22] here?
**A.** The IC50 was 1 to 10 nM.

**Q.** How did the IC50 turn out when Cc1cc(F)c(C(=O)Nc2cccc(-c3nncn3C(C)C)n2)cc1C1CC1NS(=O)(=O)C1CC1 (centres unmarked) [Example 11] was run?
**A.** Its IC50 is 1 to 10 nM.

**Q.** With Cc1cc(F)c(C(=O)Nc2cccc(-c3nncn3C(C)C)n2)cc1C1CC1NC(=O)C(C)(C)C (centres unmarked) [Example 14] as the molecule, how does the IC50 read?
**A.** Its IC50 is over 10 nM.

**Q.** COc1cc(C)c(C2CC2NC(=O)OCC(F)(F)F)cc1C(=O)Nc1cccc(-c2nncn2C(C)C)n1 (centres unmarked) [Example 17] was tested. Which IC50 did it give?
**A.** Its IC50 is 1 to 10 nM.

**Q.** With Cc1cc(F)c(C(=O)Nc2cccc(-c3nncn3C(C)C)n2)cc1C1CC1NC(=O)N(C)CCC(F)(F)F (centres unmarked) [Example 13] as the molecule, how does the IC50 read?
**A.** The IC50 was over 10 nM.

**Q.** Cc1cc(F)c(C(=O)Nc2cccc(-c3nncn3C(C)C)n2)cc1C1CC1C(=O)N1CCC(F)(F)C1 (centres unmarked) [Example 12] was tested. Which IC50 did it give?
**A.** The IC50 was over 10 nM.

**Q.** Cc1cc(F)c(C(=O)Nc2cccc(-c3nncn3[C@H](C)CO)n2)cc1C1CC1NC(=O)N(C)CCC(F)(F)F (some centres unmarked) [Example 26] was tested. Which IC50 did it give?
**A.** The IC50 was 1 to 10 nM.

**Q.** How did the IC50 turn out when COc1cc(C)c(C2CC2C(=O)N2CCC(F)(F)C2)cc1C(=O)Nc1cccc(-c2nncn2C(C)C)n1 (centres unmarked) [Example 16] was run?
**A.** The IC50 was 1 to 10 nM.

**Q.** Cc1cc(F)c(C(=O)Nc2cccc(-c3nncn3C(C)C)n2)cc1C1CC1NC(=O)OC(C)(C)C (centres unmarked) [Example 4, tert-butyl (2-(4-fluoro-5-((6-(4-isopropyl-4H-1,2,4-triazol-3-yl)pyridin-2-yl)carbamoyl)-2-methylphenyl)cyclopropyl)carbamate] was tested. Which IC50 did it give?
**A.** Its IC50 is 1 to 10 nM.

**Q.** For Cc1cc(F)c(C(=O)Nc2cccc(-c3nncn3[C@H](C)CO)n2)cc1C1CC1NS(=O)(=O)CCC(F)(F)F (some centres unmarked) [Example 27], which IC50 is on record?
**A.** Its IC50 is 1 to 10 nM.

**Q.** For Cc1cc(F)c(C(=O)Nc2cccc(-c3nncn3[C@H](C)CO)n2)cc1C1CC1C(=O)N1CCC(F)(F)C1 (some centres unmarked) [Example 24], which IC50 is on record?
**A.** Its IC50 is 1 to 10 nM.

**Q.** With COc1cc(C)c(C2CC2NC(=O)C(C)(C)C)cc1C(=O)Nc1cccc(-c2nncn2C(C)C)n1 (centres unmarked) [Example 23] as the molecule, how does the IC50 read?
**A.** The IC50 was 1 to 10 nM.

**Q.** Which IC50 does the source give for Cc1cc(F)c(C(=O)Nc2cccc(-c3nncn3[C@H](C)CO)n2)cc1C1CC1NC(=O)OCC(F)(F)F (some centres unmarked) [Example 25] here?
**A.** Its IC50 is over 10 nM.
